# Source: paper PMC9738062, “Selectively Halogenated Flavonolignans—Preparation and Antibacterial Activity” (International Journal of Molecular Sciences, 2022)
# Key:
# DPPH radical scavenging = conditions: 1,1-diphenyl-2-picrylhydrazyl radical scavenging
# Procedure: (§1) To further elucidate how halogenation affects other properties of the flavonoids studied, their 2,2′-azino-bis-(3-ethylbenzothiazoline-6-sulfonic acid) cation (ABTS) and 1,1-diphenyl-2-picrylhydrazyl (DPPH) radical scavenging, the Folin–Ciocalteu reagent (FCR) reducing, the ferric-reducing antioxidant power (FRAP), and the anti-lipoperoxidation activities were evaluated by in vitro methods (Supplementary Information Tables S1 and S2).
# (§2) The antiradical activity was evaluated by the ability to scavenge ABTS and DPPH radicals. Reducing capacity was assessed by the ability to reduce the Folin–Ciocalteu reagent (FCR) and ferric ions (FRAP). The ability to inhibit lipid peroxidation of pooled male rat microsomal liver membranes induced by tert-butyl hydroperoxide was also evaluated and the results were expressed as IC50 values.
# [1] = test system: lipopolysaccharide-stimulated macrophages (RAW 264.7); assay: Inhibition of nitric oxide production (Griess reagent); assay type: cell-based, murine; conditions: Mus musculus, RAW264.7; LPS 100 ng/mL, 24 h; highest tested concentration 100 µM; read-out: NO Production IC50
# Procedure: (§3) The anti-inflammatory activity of the tested flavonolignans was determined as the ability to reduce nitric oxide production by murine macrophages (RAW 264.7) stimulated by bacterial lipopolysaccharides, as previously described. […] For the experiment, 1 × 10^6 cells/mL was seeded into the 96-well plate (100 µL/well). […] After 24 h, the medium was mixed with Griess reagent (0.04 g/mL), prepared freshly in deionized water at the ratio of 1:1. The absorbance was measured after 15 min at 540 nm by the SpectraMax i3x microplate reader. Cell viability was determined by resazurin assay.
# [2] = Ferric reducing antioxidant power (FRAP); conditions: Fe2+ equivalents
# Procedure: as §1, §2
# [3] = test system: Vibrio campbellii BAA 1118 (AI-1); assay: Viability of the quorum-sensing reporter culture (resazurin assay), AI-1 strain; assay type: cell-based; conditions: BAA1118, V. campbellii BAA 1118, resazurin assay, read-out: IC50 (concentration that halved the viability)
# From the text: (§4) Commercially available strains of Vibrio campbellii were used to evaluate the ability of flavonoids and their derivatives to inhibit bacterial quorum sensing. V. campbellii uses two types of autoinducing molecules for its communication—N-acyl-homoserine lactones (Autoinducer I, AI-1, strain BAA 1118) and furanosyl borate diester (Autoinducer II, AI-2, strain BAA 1119). AI-1-based communication is mainly used by Gram-negative bacteria, while AI-2-based communication is found in both Gram-negative and Gram-positive bacteria. The mutant strains of V. campbellii BA1118 and BA1119 respond only to AI-1 or AI-2, respectively, and the response to the respective AI concentration is measured as luminescence. The higher the AI concentration, the higher the luminescence signal. The ability to inhibit the communication was expressed as the selectivity index (SI), calculated as the ratio between the concentration that halved the viability (IC50) and the concentration that halved the communication (EC50) of the respective V. campbellii strains. […] The antimicrobial activity of quorum-sensing inhibitors is undesirable because it creates a selection pressure and can lead to the development of resistance.
# (§5) The inhibition of bacterial extracellular communication was measured using Vibrio campbellii strains BAA-1118 and BAA-1119. The experiment was performed according to the methods of Szemerédi et al.. Briefly, 5 × 10^5 CFU/mL (colony-forming units per milliliter) were seeded in an Autoinducer Bioassay medium (NaCl 17.5 g/L, MgSO4 12.3 g/L, Casamino acids 2 g/L, 10 mL of 1 M potassium phosphate pH 7.0, 10 mL of 0.1 M L-arginine, and 10 mL of glycerol in 970 mL of deionized water) in a 96-well plate. Immediately, the tested compounds were added at the final concentration of 0.2–200 µM and luminescence was recorded for 16 h by a SpectraMax i3x microplate reader set at 30 °C, an integration time of 10,000 ms, and shaking for 60 s before measurement. […] The selectivity index was calculated as the […]. The EC50 and IC50 were calculated using GraphPad Prism software version 5.00 for Windows with a nonlinear regression curve fit.
# [4] = test system: Vibrio campbellii BAA 1119 (AI-2); assay: Viability of the quorum-sensing reporter culture (resazurin assay), AI-2 strain; assay type: cell-based; conditions: BAA1119, V. campbellii BAA 1119, resazurin assay, read-out: IC50 (concentration that halved the viability)
# From the text: as §4, §5
# [5] = test system: P. aeruginosa (CCM, 3955); assay: Inhibition of biofilm formation (surface colonization); assay type: cell-based; conditions: Pseudomonas aeruginosa; highest tested concentration 100 µM
# Procedure: Biofilm formation is a fully organized, multistep process in which bacteria are constantly communicating with each other.
# The activity of derivatives on biofilms was tested with S. aureus (ATCC, 25923) and P. aeruginosa (CCM, 3955), according to the previously described method. The highest tested concentration of derivatives was 100 µM. The activity was evaluated using an IC50 comparison between the parent compound and its derivative.
# [6] = test system: murine macrophages (RAW 264.7); assay: Cell viability in the nitric oxide assay (resazurin assay); assay type: cell-based; conditions: RAW 264.7, nitric oxide assay
# Procedure: as §3
smiles,measurement,setting,value
"O=c1c(O)c(-c2ccc(O)c(O)c2)oc2c(Br)c(O)cc(O)c12 [compound 9, 8-bromoquercetin]",IC50,DPPH radical scavenging,2.44 µM
same,IC50,[1],> 100 µM
same,FRAP [Fe2+eq],[2],2.44 ± 0.06 Fe2+eq
same,IC50,[3],27.8 ± 0.5 µM
same,IC50,[4],1.1 ± 0.1 µM
"COc1cc([C@@H]2Oc3cc([C@H]4Oc5c(Br)c(O)c(Br)c(O)c5C(=O)[C@@H]4O)ccc3O[C@H]2CO)ccc1O [compound 14, 6,8-dibromosilybin B]",IC50,DPPH radical scavenging,256 µM
same,IC50,[1],90.4 ± 4.6 µM
same,FRAP [Fe2+eq],[2],0.081 ± 0.004 Fe2+eq
same,IC50,[3],16.6 ± 0.8 µM
same,IC50,[4],60.2 ± 3.4 µM
"COc1cc([C@H]2Oc3cc([C@H]4Oc5cc(O)cc(O)c5C(=O)[C@@H]4O)ccc3O[C@@H]2CO)ccc1O [3a, silybin A, reference compound]",IC50,[5],77 µM
same,IC50,DPPH radical scavenging,322 µM
same,IC50,[1],53.9 ± 4.9 µM
same,FRAP [Fe2+eq],[2],0.071 ± 0.003 Fe2+eq
same,IC50,[3],131 ± 3.7 µM
same,IC50,[4],120 ± 3.1 µM
"COc1cc([C@@H]2Oc3c(O)cc(-c4oc5c(Br)c(O)cc(O)c5c(=O)c4O)cc3[C@H]2CO)ccc1O [compound 18, 8-Bromo-2,3-dehydrosilychristin A]",IC50,DPPH radical scavenging,11.1 ± 0.6 µM
same,IC50,[1],32.6 ± 1.8 µM
same,FRAP [Fe2+eq],[2],0.90 Fe2+eq
same,IC50,[3],80.1 ± 1.7 µM
same,IC50,[4],23 ± 0.2 µM
"COc1cc([C@H]2Oc3cc([C@H]4Oc5c(Br)c(O)c(Br)c(O)c5C(=O)[C@@H]4O)ccc3O[C@@H]2CO)cc(Br)c1O [compound 21, 6,8,21-tribromosilybin A]",IC50,DPPH radical scavenging,375 µM
same,IC50,[1],70.4 ± 1.7 µM
same,FRAP [Fe2+eq],[2],0.079 ± 0.002 Fe2+eq
same,IC50,[3],> 200 µM
same,IC50,[4],> 200 µM
"COc1cc([C@H]2Oc3cc([C@H]4Oc5c(Br)c(O)c(Br)c(O)c5C(=O)[C@@H]4O)ccc3O[C@@H]2CO)ccc1O [compound 12, 6,8-dibromosilybin A]",IC50,DPPH radical scavenging,383 µM
same,IC50,[1],73.9 ± 5.8 µM
same,FRAP [Fe2+eq],[2],0.084 ± 0.004 Fe2+eq
same,IC50,[3],23.5 ± 1 µM
same,IC50,[4],80.5 ± 4.8 µM
"COc1cc([C@@H]2Oc3cc([C@H]4Oc5cc(O)c(Br)c(O)c5C(=O)[C@@H]4O)ccc3O[C@H]2CO)ccc1O [compound 13, 6-Bromosilybin B]",IC50,DPPH radical scavenging,354 µM
same,IC50,[1],37 ± 2.4 µM
same,FRAP [Fe2+eq],[2],0.063 ± 0.001 Fe2+eq
same,IC50,[3],16.1 ± 0.1 µM
same,IC50,[4],52.7 ± 0.6 µM
"COc1cc([C@@H]2Oc3c(O)cc(-c4oc5cc(O)cc(O)c5c(=O)c4O)cc3[C@H]2CO)ccc1O [compound 6, 2,3-dehydrosilychristin A, reference compound]",IC50,DPPH radical scavenging,10.8 ± 0.4 µM
same,IC50,[1],42.1 ± 2.7 µM
same,FRAP [Fe2+eq],[2],1.16 Fe2+eq
same,IC50,[3],43 ± 1.5 µM
same,IC50,[4],11 ± 0.4 µM
"O=C1c2c(O)cc(O)cc2OC(c2ccc(O)c(O)c2)C1O (stereo not drawn) [compound 1, taxifolin, reference compound]",IC50,DPPH radical scavenging,2.91 µM
same,IC50,[1],52.4 ± 1.2 µM
same,FRAP [Fe2+eq],[2],1.45 ± 0.07 Fe2+eq
same,IC50,[3],71 ± 3 µM
same,IC50,[4],80 ± 1.7 µM
"COc1cc([C@H]2Oc3cc([C@H]4Oc5cc(O)c(Br)c(O)c5C(=O)[C@@H]4O)ccc3O[C@@H]2CO)ccc1O [compound 11, 6-Bromosilybin A]",IC50,DPPH radical scavenging,472 µM
same,IC50,[1],40 ± 3.4 µM
same,FRAP [Fe2+eq],[2],0.072 ± 0.002 Fe2+eq
same,IC50,[3],51.7 ± 0.7 µM
same,IC50,[4],51.5 ± 0.6 µM
"O=c1c(O)c(-c2ccc(O)c(O)c2)oc2c(Br)c(O)c(Br)c(O)c12 [compound 10, 6,8-dibromoquercetin]",IC50,DPPH radical scavenging,3.59 µM
same,IC50,[1],40.6 ± 2.6 µM
same,FRAP [Fe2+eq],[2],3.31 ± 0.14 Fe2+eq
same,IC50,[3],13.8 ± 0.5 µM
same,IC50,[4],3.5 ± 0.1 µM
"COc1cc(C2Oc3cc(-c4oc5c(Br)c(O)cc(O)c5c(=O)c4O)ccc3OC2CO)ccc1O (stereo not drawn) [compound 16, 8-bromo-2,3-dehydrosilybin AB]",IC50,DPPH radical scavenging,13.4 µM
same,Concentration above which the cell viability decreased,[6],> 25 µM
same,IC50,[1],> 25 µM
same,FRAP [Fe2+eq],[2],0.19 ± 0.01 Fe2+eq
same,IC50,[3],> 200 µM
same,IC50,[4],87 ± 2.5 µM
"COc1cc([C@@H]2Oc3c(O)cc([C@H]4Oc5cc(O)cc(O)c5C(=O)[C@@H]4O)cc3[C@H]2CO)ccc1O [compound 5, silychristin A, reference compound]",IC50,[5],73 µM
same,IC50,DPPH radical scavenging,47.2 µM
same,IC50,[1],72.5 ± 5.4 µM
same,FRAP [Fe2+eq],[2],0.25 ± 0.02 Fe2+eq
same,IC50,[3],> 200 µM
same,IC50,[4],> 200 µM
"COc1cc([C@@H]2Oc3cc([C@H]4Oc5c(Br)c(O)c(Br)c(O)c5C(=O)[C@@H]4O)ccc3O[C@H]2CO)cc(Br)c1O [compound 22, 6,8,21-tribromosilybin B]",IC50,DPPH radical scavenging,238 µM
same,IC50,[1],> 100 µM
same,FRAP [Fe2+eq],[2],0.062 ± 0.002 Fe2+eq
same,IC50,[3],7.3 ± 0.1 µM
same,IC50,[4],34.4 ± 1.8 µM
"COc1cc([C@@H]2Oc3cc([C@H]4Oc5cc(O)cc(O)c5C(=O)[C@@H]4O)ccc3O[C@H]2CO)ccc1O [3b, silybin B, reference compound]",IC50,[5],105 µM
same,IC50,DPPH radical scavenging,259 µM
same,IC50,[1],55.6 ± 5.5 µM
same,FRAP [Fe2+eq],[2],0.078 ± 0.004 Fe2+eq
same,IC50,[3],116.6 ± 0.9 µM
same,IC50,[4],152 ± 2.4 µM
"O=c1c(O)c(-c2ccc(O)c(O)c2)oc2cc(O)cc(O)c12 [compound 2, quercetin, reference compound]",IC50,DPPH radical scavenging,2.06 µM
same,IC50,[1],14.6 ± 2.1 µM
same,FRAP [Fe2+eq],[2],2.84 ± 0.02 Fe2+eq
same,IC50,[3],24.5 ± 0.8 µM
same,IC50,[4],10.6 ± 0.5 µM
"O=C1c2c(cc(O)c(Br)c2O)O[C@H](c2ccc(O)c(O)c2)[C@H]1O [compound 7, 6-Bromotaxifolin]",IC50,DPPH radical scavenging,7.77 µM
same,IC50,[1],78.4 ± 7.8 µM
same,FRAP [Fe2+eq],[2],1.33 ± 0.03 Fe2+eq
same,IC50,[3],59 ± 0.1 µM
same,IC50,[4],19.7 ± 1 µM
"O=C1c2c(O)c(Br)c(O)c(Br)c2O[C@H](c2ccc(O)c(O)c2)[C@H]1O [compound 8, 6,8-dibromotaxifolin]",IC50,DPPH radical scavenging,4.37 µM
same,IC50,[1],62.2 ± 4.2 µM
same,FRAP [Fe2+eq],[2],2.20 ± 0.03 Fe2+eq
same,IC50,[3],55.5 ± 1 µM
same,IC50,[4],109.3 ± 0.8 µM
"COc1cc(C2Oc3cc(-c4oc5cc(O)cc(O)c5c(=O)c4O)ccc3OC2CO)ccc1O (stereo not drawn) [compound 4, 2,3-dehydrosilybin AB, reference compound]",IC50,DPPH radical scavenging,14.4 µM
same,IC50,[1],27.9 ± 0.5 µM
same,FRAP [Fe2+eq],[2],0.72 ± 0.03 Fe2+eq
same,IC50,[3],163 ± 3.8 µM
same,IC50,[4],25.3 ± 1 µM
